By inhibition is commonly meant the change of the read-out against control, counted positive when it falls. One may read the chromatographic logP as lipophilicity estimated from chromatographic retention. Read a high chromatographic logP as a more lipophilic compound.

The test system of one data set is Septoria tritici. Description: B-9. Septoria tritici in vitro cell test. The format is cell-based. The conditions noted are these: Zymoseptoria tritici, 168 h; 20 ppm of active ingredient; 7 days incubation; liquid culture, absorbance; read-out: efficacy (inhibition of fungal growth). The method in brief: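 Compounds from DMSO stocks (final DMSO ≤1%) were added to liquid medium containing S. tritici spores to test inhibition of germination and mycelial growth. After 7 days, mycelium growth was read spectrometrically and inhibition derived from absorbance versus fungicide-free control wells.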

Data set [1] has as its system Colletotrichum lindemuthianum. Description: B-8. Colletotrichum lindemuthianum in vitro cell test. In kind it is cell-based. The conditions noted are these: 144 h, 20 ppm of active ingredient, 6 days incubation, liquid culture, absorbance, read-out: efficacy (inhibition of fungal growth). The method in brief:
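Liquid-culture germination/growth test: compounds in ≤1% final DMSO were added to spore-containing medium. Fungal growth was quantified spectrophotometrically after 6 days of incubation and expressed as inhibition versus untreated controls.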

A further data set has as its system Alternaria alternata. Description: Alternaria alternata in vitro cell test. The format is cell-based. Conditions: 120 h, 20 ppm of active ingredient, liquid culture, 5 days incubation, spectrometric measurement of mycelium growth, read-out: efficacy (inhibition of fungal growth). Put shortly:
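Spectrometric readout of mycelial growth after 5-day incubation gauged compound effects on spore germination and growth of A. alternata in liquid medium. Compounds were delivered in DMSO at ≤1% final. Absorbance was compared with untreated controls to give inhibition.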

For data set [2], the system named is Pyrenophora teres. Kind of data set: B-10. Pyrenophora teres in vitro cell test. In kind it is cell-based. Conditions: 144 h, 20 ppm of active ingredient, 6 days incubation, liquid culture, absorbance, read-out: efficacy (inhibition of fungal growth). Put shortly: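 Liquid-culture assay on a P. teres spore suspension with compounds added to the medium from DMSO solutions, final DMSO ≤1%. Mycelium growth read spectrometrically after 6 days. Inhibition calculated from absorbance against untreated control wells.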

For data set [3], the system named is Pyrenophora teres. Kind of data set: In vivo preventive test on Pyrenophora teres (net blotch on barley). The conditions noted are these: 240 h, 500 ppm of active ingredient, preventive spray on barley, evaluated 10 days after inoculation, read-out: efficacy. The method in brief:
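Net blotch spores were sprayed onto barley leaves one day after foliar treatment with water-diluted DMSO/acetone/Tween 80 formulations (solvent-only controls). Plants were kept at 20° C: first 48 hours at 100% relative humidity, then 8 days at 70-80%.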

Data set [4] is described as follows: Measurement of Log P values by HPLC on reversed phase columns (EEC directive 79/831 Annex V.A8). Conditions: reversed phase HPLC column, method [a]: LC-UV, acidic range, 0.1% formic acid in water and acetonitrile as eluent. The format is physicochemical. Put shortly:
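Log P derived from retention on reversed-phase columns (EEC directive 79/831 Annex V.A8), LC-UV, acetonitrile gradient 10% to 95% against water containing 0.1% formic acid, 0.001 M ammonium acetate, or 0.1% phosphoric acid; several values per method separated by "+".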

The test system of another data set is Sphaerotheca fuliginea. Kind of data set: In vivo preventive test on Sphaerotheca fuliginea (powdery mildew on cucurbits). Conditions: Podosphaera fuliginea, 192 h; 500 ppm of active ingredient; preventive spray on gherkin; evaluated 8 days after inoculation; read-out: efficacy. The method in brief: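 This is a preventive spray test on gherkin seedlings, with compound formulated in DMSO/acetone/Tween 80 in water and solvent-only controls. Spore inoculation followed one day after treatment. Incubation lasted 8 days at 20 °C, 70–80% RH.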

The subject of a further data set is Alternaria brassicae. Description: In vivo preventive test on Alternaria brassicae (leaf spot on radish or cabbage). Conditions: 500 ppm of active ingredient, preventive spray on radish or cabbage, evaluated 3 to 4 days after inoculation, read-out: efficacy. The method in brief:
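Protective spray on young radish or cabbage: actives in water diluted from DMSO/acetone/Tween 80, with solvent-only controls. Leaves were challenged after 24 h with a spore suspension, and plants were held at 100% RH, 20 °C for 3 to 4 days.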

Data set [5] has as its system Colletotrichum lindemuthianum. Description: In vivo preventive test on Colletotrichum lindemuthianum (leaf spot on bean). The conditions noted are these: 168 h, 500 ppm of active ingredient, preventive spray on bean, evaluated 7 days after inoculation, read-out: efficacy. Put shortly:
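Young bean plants sprayed with compound in DMSO/acetone/Tween 80 diluted in water; solvent-only controls. Inoculated 24 h later with C. lindemuthianum spore suspension, then kept 24 h at 20 °C/100% RH and 6 days at 20 °C/90% RH.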

Data set [6] relates to Botrytis cinerea. Description: B-11. Botrytis cinerea in vitro cell test. The conditions noted are these: 144 h, 20 ppm of active ingredient, 6 days incubation, liquid culture, absorbance, read-out: efficacy (inhibition of fungal growth). The format is cell-based. Put shortly: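 B. cinerea spores were grown in liquid culture with compound (DMSO ≤1% final). Mycelium growth was measured spectrometrically after 6 days, with inhibition taken as absorbance relative to untreated control wells.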

The subject of data set [7] is Botrytis cinerea. Kind of data set: In vivo preventive test on Botrytis cinerea (grey mould). Conditions: 500 ppm of active ingredient, preventive spray on gherkin or cabbage, evaluated 4 to 5 days after inoculation, read-out: efficacy. Put shortly:
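Preventive spray on cabbage or gherkin seedlings, with compound formulated in DMSO/acetone/Tween 80 and water-diluted, preceded spore inoculation by 24 hours. Cabbage was held 4 to 5 days at 20° C., 100% relative humidity; gherkin 4 to 5 days at 17° C., 90% relative humidity.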

On to `Cc1ccc([C@@H](F)CNC(=O)c2c(Oc3cccc(C(F)(F)F)c3)nnc3c2OCC(C)(C)O3)c(C)c1` (racemic) [I-155], for which the inhibition at 20 ppm (in the data set with Septoria tritici; in data set [1]; in the data set on Alternaria alternata; in the data set with Pyrenophora teres [2]; with Botrytis cinerea [6]) was 90 to 100% in each case. Also, the pest or weed control at 500 ppm (with Pyrenophora teres [3]; with Sphaerotheca fuliginea; in the data set on Alternaria brassicae; in data set [5]) was 90 to 100% in each case. In [4], this compound displayed a chromatographic logP of 3.91.

On to `Cc1cc(Br)ccc1C(F)(F)CNC(=O)c1c(Oc2cccc(C(F)(F)F)c2)nnc2c1CCCC2` [I-202], for which the inhibition at 20 ppm (with Septoria tritici; in data set [1]; in the data set with Alternaria alternata; in the data set on Pyrenophora teres [2]; with Botrytis cinerea [6]) was 90 to 100% throughout. For the same compound, the pest or weed control at 500 ppm (with Pyrenophora teres [3]; in the data set with Botrytis cinerea [7]; in the data set on Sphaerotheca fuliginea; in [5]) was 90 to 100% each time. Besides, the chromatographic logP in data set [4] was 4.28.

In the case of `O=C(NCC(F)(F)c1ccc(Br)cc1Cl)c1c(Oc2cccc(C3CC3)c2F)nnc2c1CCCC2` [I-211], the inhibition at 20 ppm (with Septoria tritici; in data set [1]; with Alternaria alternata; in the data set with Pyrenophora teres [2]; in the data set on Botrytis cinerea [6]) was 90 to 100% in each case. In addition, the pest or weed control at 500 ppm (with Pyrenophora teres [3]; in the data set on Botrytis cinerea [7]; in the data set with Sphaerotheca fuliginea; in data set [5]) was 90 to 100% throughout. Also, in data set [4], the chromatographic logP is 4.69.

`Cc1cc(Br)ccc1C(F)(F)CNC(=O)c1c(Oc2cccc(C3CC3)c2F)nnc2c1CCCC2` [I-153]: the inhibition at 20 ppm (in the data set with Septoria tritici; in data set [1]; in the data set on Alternaria alternata; in the data set on Pyrenophora teres [2]; in the data set with Botrytis cinerea [6]) was 90 to 100% throughout. Moreover, the pest or weed control at 500 ppm (with Pyrenophora teres [3]; in the data set on Sphaerotheca fuliginea; with Alternaria brassicae; in data set [5]) was 90 to 100% throughout.

In the case of `Cc1cc(Cl)ccc1C(F)(F)CNC(=O)c1c(Oc2cccc(C(F)(F)F)c2)nnc2c1CCC2` [I-164], the inhibition at 20 ppm (in the data set on Septoria tritici; in data set [1]; with Alternaria alternata; with Pyrenophora teres [2]; with Botrytis cinerea [6]) was 90 to 100% each time. The pest or weed control at 500 ppm (in the data set with Pyrenophora teres [3]; in the data set with Sphaerotheca fuliginea; in the data set with Alternaria brassicae; in [5]) was 90 to 100% throughout. The compound also came in with a chromatographic logP in data set [4] of 4.11.

As for `Cc1cc(Br)ccc1C(F)(F)CNC(=O)c1c(Oc2cccc(C(F)(F)F)c2)nnc2c1CCC2` [I-206], the inhibition at 20 ppm (with Septoria tritici; in [1]; in the data set on Alternaria alternata; in the data set on Pyrenophora teres [2]; with Botrytis cinerea [6]) was 90 to 100% throughout. In addition, the pest or weed control at 500 ppm (in the data set on Pyrenophora teres [3]; in the data set on Botrytis cinerea [7]; in the data set on Sphaerotheca fuliginea; in data set [5]) was 90 to 100% in each case. Further, the chromatographic logP in [4] is 4.17.

On to `O=C(NCC(F)(F)c1ccc(Cl)cc1Cl)c1c(Oc2cccc(C(F)(F)F)c2)nnc2c1CCCC2` [I-189], for which the inhibition at 20 ppm (with Septoria tritici; in [1]; in the data set on Alternaria alternata; in the data set on Pyrenophora teres [2]; in the data set on Botrytis cinerea [6]) was 90 to 100% throughout. Also, the pest or weed control at 500 ppm in the data set on Pyrenophora teres [3] lay within 80 to 89%; in the data set on Botrytis cinerea [7], 90 to 100%; in the data set on Sphaerotheca fuliginea, 90 to 100%; in data set [5], 90 to 100%. In data set [4], the chromatographic logP came to 4.23.

For the compound `Cc1ccc(CCNC(=O)c2c(Oc3cccc(C(F)(F)F)c3)cnc3c2CCC3)c(C)c1` [I-157], the inhibition at 20 ppm (with Septoria tritici; in data set [1]; with Alternaria alternata; with Pyrenophora teres [2]; with Botrytis cinerea [6]) was 90 to 100% in each case. Moreover, the pest or weed control at 500 ppm (in the data set with Pyrenophora teres [3]; with Sphaerotheca fuliginea; with Alternaria brassicae; in data set [5]) was 90 to 100% throughout. The same compound came in with a chromatographic logP in data set [4] of 4.23.

On to `O=C(NCC(F)c1ccc(Cl)cc1Cl)c1c(Oc2cccc(C3CC3)c2F)nnc2c1CCCC2` (centres unmarked) [I-184], for which the inhibition at 20 ppm (in the data set on Septoria tritici; in data set [1]; in the data set on Alternaria alternata; in the data set on Pyrenophora teres [2]; with Botrytis cinerea [6]) was 90 to 100% each time. Further, the pest or weed control at 500 ppm (in the data set with Pyrenophora teres [3]; in the data set with Sphaerotheca fuliginea; with Alternaria brassicae; in data set [5]) was 90 to 100% each time. Further, the chromatographic logP in data set [4] was found to be 4.17.

As for `O=C(NCC(F)(F)c1ccc(Br)cc1Cl)c1c(Oc2cccc(Cl)c2)nnc2c1CCCC2` [I-209], the inhibition at 20 ppm lay in the range of 80 to 89% in the data set on Septoria tritici; 90 to 100% in data set [1]; 90 to 100% in the data set on Alternaria alternata; 90 to 100% in the data set with Pyrenophora teres [2]; 90 to 100% in the data set with Botrytis cinerea [6]. In addition, the pest or weed control at 500 ppm (with Pyrenophora teres [3]; in the data set with Botrytis cinerea [7]; in the data set with Sphaerotheca fuliginea; in data set [5]) was 90 to 100% each time. For the same compound, the chromatographic logP in [4] amounted to 4.11.

Turning to `Cc1cc(Br)ccc1C(F)(F)CNC(=O)c1c(Oc2cccc(Cl)c2F)nnc2c1CCC2` [I-154], the inhibition at 20 ppm (in the data set with Septoria tritici; in [1]; with Alternaria alternata; in the data set on Pyrenophora teres [2]; in the data set with Botrytis cinerea [6]) was 90 to 100% throughout. The pest or weed control at 500 ppm (in the data set with Pyrenophora teres [3]; in the data set with Sphaerotheca fuliginea; in the data set with Alternaria brassicae; in data set [5]) was 90 to 100% in each case. The chromatographic logP in [4] worked out at 4.11.

As for `O=C(NCC(F)(F)c1ccc(Cl)cc1Cl)c1c(Oc2cccc(C(F)F)c2)nnc2c1CCCC2` [I-191], the inhibition at 20 ppm (in the data set on Septoria tritici; in [1]; with Alternaria alternata; in the data set with Pyrenophora teres [2]; in the data set with Botrytis cinerea [6]) was 90 to 100% each time. In addition, the pest or weed control at 500 ppm (in the data set with Pyrenophora teres [3]; with Botrytis cinerea [7]; in the data set with Sphaerotheca fuliginea; in data set [5]) was 90 to 100% throughout. The same compound yielded a chromatographic logP in [4] of 3.73.

Values taken from patent US20230192617A1, “AZABICYCLIC(THIO)AMIDES AS FUNGICIDAL COMPOUNDS” (Bayer CropScience Aktiengesellschaft, priority 2020, published 2023).
